Measured values published in US20160123957A1, “Visualization of P-TEFb by Fluorescence Complementation” (The Regents of the University of California, priority 2014, published 2016).

Tests used:
P-TEFb = test: BiFC assay, YC.P-TEFb coexpressed with YN.CTD in HEK293 cells; format: cell-based; conditions: for number of YFP-positive cells: versus normal culture conditions
Source text: Sequences encoding amino acids 1-154 (YN) and 155-238 (YC) of YFP were amplified and cloned in mammalian expression plasmids. The YN.CTD chimera was constructed by inserting DNA fragments from a 52X heptapeptide (52 X SEQ ID NO: 4 (SEQ ID NO: 7)) CTD coding plasmid with a linker sequence encoding a nuclear localization signal, SEQ ID NO: 5. The YC.PTEFb chimera was constructed by inserting DNA fragments corresponding to P-TEFb into the YC plasmid, with Cdk9 and CycT1 sequences genetically fused to express as a single chimeric polypeptide, that can form a functional P-TEFb molecule. A polynucleotide coding for the linker of SEQ ID NO: 6 was optionally utilized in the constructs, between P-TEFb or CTD sequences and their associated fluorophores fragments. All proteins contained an anti-c-Myc antibody epitope tag at the N termini, and their expression in cells was confirmed by Western blotting using an anti-c-Myc antibody.
(§1) HeLa or HEK293 cells growing in log phase were transfected with plasmid DNA encoding YN.CTD and YC.P-TEFb fusion proteins by use of a lipofection agent. Incorporation of YC.P-TEFb into the 7SK snRNP was confirmed by immunoprecipitation and Western blot analysis with antibodies to the components of the 7SK snRNP.
The BiFC assay was used to detect interactions between released free P-TEFb and its natural substrate, RNA polymerase II CTD. When YC.P-TEFb was coexpressed with YN.CTD in HEK293 cells under normal culture conditions, very few weakly YFP-positive cells were detected. […] Because the emission peak of YFP (527 nm) is similar to that of GFP (509 nm), the BiFC-positive cells appeared green. […] YC.P-TEFb was employed to monitor P-TEFb activation by BiFC in cells.
A time-dependent increase in BiFC signals was monitored by time-lapse fluorescence microscopic analysis. HEK293 cells expressing YC.P-TEFb and YN.CTD were treated with 5 micromolar SAHA, and fluorescent images were taken every 3 min. BiFC signals were detected by 30 min after the addition of SAHA and reached a peak at a time point between 75 and 90 min. At later times, more intense and punctate nuclear staining reflected the accumulation of active P-TEFb in nuclear speckles. This finding is consistent with previous observations of P-TEFb release by SAHA with a consideration of the time required for maturation of the fluorophore.

7SK snRNP = test: Immunoprecipitation and Western blot of 7SK snRNP fractions in cells expressing YC.P-TEFb; format: cell-based; conditions: HeLa or HEK293 cells, SAHA treatment
Source text: as §1

SMILES | time-dependent increase in BiFC signals (P-TEFb release) (P-TEFb; time-lapse fluorescence microscopy) | amounts of YC.P-TEFb and endogenous CycT1 proteins in 7SK snRNP fractions (7SK snRNP) | levels of free P-TEFb (7SK snRNP) | time at which BiFC signals were detected after addition (P-TEFb; 5 micromolar, time-lapse fluorescence microscopy, images every 3 min) [min] | number of YFP-positive cells (P-TEFb)
Nc1ncn([C@@H]2O[C@H](CO)[C@@H](O)[C@H]2O)c(=O)n1 [AzaC] | released P-TEFb |  |  |  | 
O=C(CCCCCCC(=O)Nc1ccccc1)NO [SAHA] |  | reduced | increased | ≤ 30 | increased significantly
CC(=O)NCCCCCCNC(C)=O [HMBA] |  |  |  |  | increased significantly
CN1CCc2c(c3ccccc3n2Cc2ccc(C(=O)NO)cc2)C1 [tubastatin A] |  |  |  |  | did not increase
